# According to patent publication US8952025B2, “Multifunctional radical quenchers and their uses” (Arizona Board of Regents, A Body Corporate of the State of …, priority 2010, dated 2015):
# Legend:
# cultured FRDA cells = experiment: Cytoprotection of cultured FRDA cells depleted of glutathione; type: cell-based; conditions: pretreated then depleted of glutathione, read-out: Viable Cells (%)
# Text: The cells were pretreated with the compounds and then depleted of glutathione. The cell viability is expressed as percentage of total number of cells.
# [1] = test system: NADH oxidase, bovine heart mitochondrial complex (I, III, IV); experiment: NADH oxidase inhibition assay, submitochondrial particles; type: biochemical; conditions: for NADH oxidase activity (%): percentage of control; for IC50: beef heart SMP
# Procedure: Beef heart mitochondria were obtained by a large-scale procedure. Inverted submitochondrial particles (SMP) were prepared by the method of Matsuno-Yagi and Hatefi (J. Biol. Chem. 260 (1985), p. 14424), and stored in a buffer containing 0.25 M sucrose and 10 mM Tris-HCl (pH 7.4) at −80° C. Inhibitory effects of compounds on bovine heart mitochondrial complex (I, III, IV) were evaluated. Maximal dimethyl sulfoxide concentration never exceeded 2% and had no influence on the control enzymatic activity. Beef heart SMP were diluted to 0.5 mg/mL. The enzymatic activities were assayed at 30° C. and monitored spectrophotometrically with a Beckman Coulter DU-530 (340 nm, c=6.22 mM^−1 cm^−1). NADH oxidase activity was determined in a reaction medium (2.5 mL) containing 50 mM Hepes, pH 7.5, containing 5 mM MgCl2. The final mitochondrial protein concentration was 30 μg. After the pre-equilibration of SMP with inhibitor for 5 min, the initial rates were calculated from the linear portion of the traces.
# The activity is expressed as percentage of control.
# [2] = test system: CoQ10 deficient lymphocyte cell line; experiment: Total intracellular ATP concentration assay (luciferin-luciferase); type: cell-based, human; conditions: 48 h, glucose free media with galactose
# Text: The reductions of mitochondrial respiratory chain activity in CoQ10 deficient patients have been reported (Quinzii G M, Lopez L C, Von-Moltke J, Naini A, Krishna S, Schuelke M, Salviati L, Navas P, DiMauro S, and Hirano, M. Respiratory chain dysfunction and oxidative stress correlate with severity of primary CoQ10 deficiency. FASEB J. 2008; 22:1874-1885). The use of CoQ10 analogues to normalize and restore the respiratory chain activities could provide valuable therapeutic approach. We have evaluated the efficiency of oxidative phosphorylation in CoQ10 deficient lymphocyte (GM17932) in presence of tested CoQ10 analogues by measuring total cellular ATP content using (ViaLight® Plus ATP monitoring reagent kit, Lonza).
# CoQ10 deficient lymphocyte and normal lymphocyte cell lines were obtained from Coriell Cell Repositories (Camden, N.J.; catalog number GM-17932, GM-158151, respectively). CoQ10 deficient lymphocytes were cultured under glucose-free media supplemented with galactose for two weeks to force energy production predominantly through oxidative phosphorylation rather than glycolysis (Quinzii et al.; Robinson B H, Petrova-Benedict R, Buncic J R, Wallace D C. Nonviability of cells with oxidative defects in galactose medium: A screening test for affected patient fibroblast. Biochem. Med. Metab. Biol. 1992; 48:122-126). Lymphocytes were cultured in RPMI 1640 medium glucose-free (Gibco, Grand Island, N.Y.) supplemented with 25 mM galactose, 2 mM glutamine and 1% penicillin-streptomycin (Cellgro), and 10%, dialyzed fetal bovine serum FBS 0.5 μg/mL) (GEMINI, Bio-Product), Briefly, lymphocytes (2×10^5 cell/mL), were plated (1 mL in 12-well plates) and treated with the test compounds at final concentrations of 5, 10 μM, and 25 μM and incubated at 37° C. for 48 h in a humidified atmosphere containing 5% CO2 in air. The test compounds were prepared by first making 20 mM stock solutions in DMSO. Cells were transferred (100 μL) to 96-well microtiter black-walled cell culture plates (Costar, Corning, N.Y.). The total intracellular ATP level was measured in a luminator (Clarity™ luminescence microplate reader) with the ATP Bioluminescence Assay Kit (ViaLight® Plus ATP monitoring reagent kit, Lonza) following the manufacturer's instructions. The standard curve of ATP was obtained by serial dilution of 1 mM ATP solution. After calibration against the ATP standard, the ATP content of the cell extract was determined and normalized for protein content in the cell.
# To enforce the respiratory chain-dependent ATP synthesis, cells were grown for 48 hours in glucose free media supplemented with 25 mM galactose and 10% dialyzed fetal bovine serum (glucose concentration less than 0.5 μg/mL). FIG. 20 illustrates total intracellular ATP levels in CoQ10 deficient and normal lymphocytes measured using the luciferin-luciferase reaction. The levels of ATP shown in Table 1 are relative to the 100% value obtained for the CoQ10 deficient cells in FIG. 20.
structure (smiles),measurement,setting,value
COc1cc(N(C)C)nc(CCCCCCCCCCO)c1O,viability at 0.1 µM,cultured FRDA cells,33 ± 4.2%
same,viability at 0.5 µM,cultured FRDA cells,28.3 ± 2.1%
same,viability at 2.5 µM,cultured FRDA cells,29.5 ± 2.1%
CCCCCCCCCCc1nc(N2C(C)CCC2C)nc(C)c1O (centres unmarked),NADH oxidase activity (%),[1]; 1 μM,40%
same,IC50,[1],10.7 µM
Cc1nc(N(C)C)nc(CCCCCCCCCCO)c1O [drawing 116],Total ATP concentration (% of control),[2]; 5 μM,102.4 ± 1.2 % of control
same,Total ATP concentration (% of control),[2]; 10 μM,87.9 ± 4.3 % of control
same,Total ATP concentration (% of control),[2]; 25 μM,46.1 ± 1.2 % of control
COc1nc(N(C)C)nc(CCCCCCCCCCO)c1O [drawing 117],Total ATP concentration (% of control),[2]; 5 μM,101.6 ± 1.4 % of control
same,Total ATP concentration (% of control),[2]; 10 μM,96.8 ± 4.0 % of control
same,Total ATP concentration (% of control),[2]; 25 μM,48.7 ± 0.8 % of control
CCCCCc1nc(N(C)C)nc(C)c1O [drawing 118],Total ATP concentration (% of control),[2]; 5 μM,109.3 ± 2.3 % of control
same,Total ATP concentration (% of control),[2]; 10 μM,111.1 ± 1.5 % of control
same,Total ATP concentration (% of control),[2]; 25 μM,105.6 ± 2.4 % of control
CCCCCCCCCCc1nc(N(C)C)nc(C)c1O [drawing 119],Total ATP concentration (% of control),[2]; 5 μM,106.6 ± 2.7 % of control
same,Total ATP concentration (% of control),[2]; 10 μM,98.7 ± 1.1 % of control
same,Total ATP concentration (% of control),[2]; 25 μM,75.3 ± 1.8 % of control
CCCCCCCCCCCCCCCCc1nc(N(C)C)nc(C)c1O [drawing 120],Total ATP concentration (% of control),[2]; 5 μM,111.5 ± 1.8 % of control
same,Total ATP concentration (% of control),[2]; 10 μM,106.9 ± 2.7 % of control
same,Total ATP concentration (% of control),[2]; 25 μM,101.6 ± 3.1 % of control
CCCCCCCCCCc1nc(N(C)C)nc(OC)c1O [drawing 121],Total ATP concentration (% of control),[2]; 5 μM,109.4 ± 5.0 % of control
same,Total ATP concentration (% of control),[2]; 10 μM,110.5 ± 6.5 % of control
same,Total ATP concentration (% of control),[2]; 25 μM,68.3 ± 2.7 % of control
CCCCCCCCCCCCCCCCc1nc(N(C)C)nc(OC)c1O [drawing 122],Total ATP concentration (% of control),[2]; 5 μM,122.3 ± 1.9 % of control
same,Total ATP concentration (% of control),[2]; 10 μM,116.4 ± 0.5 % of control
same,Total ATP concentration (% of control),[2]; 25 μM,113.0 ± 1.6 % of control
Cc1nc(N(C)C)nc(CCCCCCCCCCO)c1O [drawing 123],viability at 0.1 µM,cultured FRDA cells,63.6 ± 8.4%
same,viability at 0.5 µM,cultured FRDA cells,83.5 ± 0.7%
same,viability at 2.5 µM,cultured FRDA cells,82.7 ± 8.1%
Cc1cc(N(C)C)nc(CCCCCCCCCCO)c1O [drawing 124],viability at 0.1 µM,cultured FRDA cells,54 ± 5.2%
same,viability at 0.5 µM,cultured FRDA cells,76.5 ± 2.1%
same,viability at 2.5 µM,cultured FRDA cells,81.7 ± 5%
COc1nc(N(C)C)nc(CCCCCCCCCCO)c1O [drawing 125],viability at 0.1 µM,cultured FRDA cells,55.6 ± 5.7%
same,viability at 0.5 µM,cultured FRDA cells,80 ± 4%
same,viability at 2.5 µM,cultured FRDA cells,78.3 ± 7.5%
CCCCCc1nc(N(C)C)nc(C)c1O [drawing 127],viability at 0.1 µM,cultured FRDA cells,46 ± 3.5%
same,viability at 0.5 µM,cultured FRDA cells,78.7 ± 4%
same,viability at 2.5 µM,cultured FRDA cells,81.3 ± 5.1%
CCCCCCCCCCc1nc(N(C)C)nc(C)c1O [drawing 128],viability at 0.1 µM,cultured FRDA cells,54.5 ± 3.3%
same,viability at 0.5 µM,cultured FRDA cells,84 ± 3.6%
same,viability at 2.5 µM,cultured FRDA cells,76.3 ± 5%
CCCCCCCCCCCCCCCCc1nc(N(C)C)nc(C)c1O [drawing 129],viability at 0.1 µM,cultured FRDA cells,61.3 ± 2.9%
same,viability at 0.5 µM,cultured FRDA cells,84.4 ± 3.4%
same,viability at 2.5 µM,cultured FRDA cells,88 ± 1%
CCCCCCCCCCc1nc(N(C)C)nc(OC)c1O [drawing 130],viability at 0.1 µM,cultured FRDA cells,40.3 ± 1.5%
same,viability at 0.5 µM,cultured FRDA cells,83.7 ± 1.5%
same,viability at 2.5 µM,cultured FRDA cells,82.7 ± 2.5%
CCCCCCCCCCCCCCCCc1nc(N(C)C)nc(OC)c1O [drawing 131],viability at 0.1 µM,cultured FRDA cells,43.7 ± 3.1%
same,viability at 0.5 µM,cultured FRDA cells,66.3 ± 1.5%
same,viability at 2.5 µM,cultured FRDA cells,80.5 ± 5%
CCCCCc1nc(N(C)C)nc(C)c1O [drawing 132],NADH oxidase activity (%),[1]; 1 μM,85%
CCCCCCCCCCc1nc(N(C)C)nc(C)c1O [drawing 133],NADH oxidase activity (%),[1]; 1 μM,40%
same,IC50,[1],0.829 µM
Cc1nc(N(C)C)nc(CCCCCCCCCCO)c1O [drawing 134],NADH oxidase activity (%),[1]; 1 μM,50%
same,NADH oxidase activity (%),[1]; 2.5 μM,42%
same,NADH oxidase activity (%),[1]; 5 μM,22%
same,NADH oxidase activity (%),[1]; 10 μM,15%
same,IC50,[1],2.23 µM
Cc1nc2c(c(CC[C@](C)(O)CCC[C@H](C)CCC[C@H](C)CCCC(C)C)c1O)CCN2C [drawing 136],NADH oxidase activity (%),[1]; 1 μM,50%
same,NADH oxidase activity (%),[1]; 2.5 μM,50%
same,NADH oxidase activity (%),[1]; 10 μM,15%
Cc1cc(N(C)C)nc(CCCCCCCCCCO)c1O [drawing 137],NADH oxidase activity (%),[1]; 1 μM,90%
same,NADH oxidase activity (%),[1]; 2.5 μM,58%
same,NADH oxidase activity (%),[1]; 5 μM,38%
same,NADH oxidase activity (%),[1]; 10 μM,20%
COc1nc(N(C)C)nc(CCCCCCCCCCO)c1O [drawing 138],NADH oxidase activity (%),[1]; 1 μM,62.5%
same,NADH oxidase activity (%),[1]; 2.5 μM,40%
same,NADH oxidase activity (%),[1]; 5 μM,50%
same,NADH oxidase activity (%),[1]; 10 μM,25%
CCCCCCCCCCCCCCCCc1nc(N(C)C)nc(C)c1O [drawing 139],NADH oxidase activity (%),[1]; 1 μM,62%
same,NADH oxidase activity (%),[1]; 2.5 μM,62%
same,NADH oxidase activity (%),[1]; 5 μM,62%
same,NADH oxidase activity (%),[1]; 10 μM,62%
CCCCCCCCCCCCCCCCc1nc(N(C)C)nc(OC)c1O [drawing 140],NADH oxidase activity (%),[1]; 1 μM,90%
same,NADH oxidase activity (%),[1]; 2.5 μM,70%
same,NADH oxidase activity (%),[1]; 5 μM,70%
same,NADH oxidase activity (%),[1]; 10 μM,70%
CCCCCCCCCCc1nc(N(C)C)nc(OC)c1O [drawing 141],NADH oxidase activity (%),[1]; 1 μM,38%
same,NADH oxidase activity (%),[1]; 5 μM,38%
same,NADH oxidase activity (%),[1]; 10 μM,10%
